Like-named read-outs stand apart in the source and are kept apart here.
Experiments:
cathepsin G = biological target: T1, cathepsin G (Homo sapiens, UniProt P08311); assay: Inactivation of cathepsin G; type: biochemical; set-up: percentage of inhibition: concentration or dose not given beside the values; conditions: for kinact/KI: read-out: kobs/[I]; for percentage of inhibition: after 5 min incubation
T1 construct: from tissue; host or cells: human leukocytes
T1 sequence (P08311 21-255): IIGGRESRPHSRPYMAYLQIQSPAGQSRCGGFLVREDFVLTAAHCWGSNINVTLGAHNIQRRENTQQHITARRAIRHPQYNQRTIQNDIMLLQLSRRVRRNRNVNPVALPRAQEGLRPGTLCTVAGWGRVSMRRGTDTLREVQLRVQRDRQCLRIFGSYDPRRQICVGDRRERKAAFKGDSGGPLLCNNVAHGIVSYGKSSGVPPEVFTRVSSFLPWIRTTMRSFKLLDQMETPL

[1] = biological target: T2, porcine pancreatic elastase (PPE) (Sus scrofa, UniProt P00772); assay: Inactivation of porcine pancreatic elastase (PPE); type: biochemical; conditions: for kinact/KI: read-out: kobs/[I]
T2 construct: from tissue; host or cells: porcine pancreas (from the name)
T2 sequence (P00772 27-266): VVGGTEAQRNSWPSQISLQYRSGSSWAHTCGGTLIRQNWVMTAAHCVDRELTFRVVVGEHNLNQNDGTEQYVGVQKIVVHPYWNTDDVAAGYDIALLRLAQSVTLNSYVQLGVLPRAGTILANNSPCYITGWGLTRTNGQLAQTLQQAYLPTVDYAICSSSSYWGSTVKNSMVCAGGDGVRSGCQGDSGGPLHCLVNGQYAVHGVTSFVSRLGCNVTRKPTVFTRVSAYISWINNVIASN

chymotrypsin = chymotrypsin (Bos taurus, UniProt P00766); assay: Inactivation of chymotrypsin; type: biochemical, bovine
[2] = biological target: T3, human leukocyte elastase (HLE) (Homo sapiens, UniProt P08246); assay: Inactivation of human leukocyte elastase (HLE); type: biochemical
T3 construct: from tissue; host or cells: human leukocytes (from the name)
T3 sequence (P08246 30-267): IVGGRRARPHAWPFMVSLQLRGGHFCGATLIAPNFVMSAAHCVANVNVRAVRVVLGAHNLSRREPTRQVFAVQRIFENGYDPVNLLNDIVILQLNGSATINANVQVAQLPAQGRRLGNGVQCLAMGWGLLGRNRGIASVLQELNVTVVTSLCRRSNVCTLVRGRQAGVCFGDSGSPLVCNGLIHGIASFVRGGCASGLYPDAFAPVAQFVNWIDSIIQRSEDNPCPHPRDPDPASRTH

human thrombin = biological target: T4, human thrombin (Homo sapiens, UniProt P00734); assay: Inactivation rate of human thrombin; type: biochemical; conditions: Table VIII; pH 7.5, 25° C; [I] 1.2-54 μM; read-out: kobs/[I]
T4 construct: human thrombin
Procedure: Inactivation rates of serine proteases by substituted isocoumarins were measured by the incubation method. An aliquot of inhibitor (25 or 50 μl) in Me2 SO was added to a buffered enzyme solution (0.01-2.3 μM) to initiate the inactivation. Aliquots (50 μl) were withdrawn at various intervals and the residual enzymatic activity was measured. Me2 SO concentration in the reaction mixture was 8-12% (v/v). 0.1 Hepes, 0.01M CaCl2, pH 7.5 buffer was utilized for trypsin and coagulation enzymes. 0.1M Hepes, 0.5M NaCl, pH 7.5 was utilized for other serine proteases. The inhibitor concentrations are shown in all the tables. Peptide thioesters or peptide nitroanilides with appropriate sequence were used as substrates for various serine proteases. All peptide thioester hydrolysis rates were measured with assay mixtures containing 4,4'-dithiodipyridine (ε324 =19800M^-1 cm^-1; Grasetti & Murray, Arch. Biochem. Biophys. 119, pp 41-49 (1967)). Peptide 4-nitroanilide nitroanilide hydrolysis was measured at 410 nm (ε410 =8800M^-1 cm^-1; Erlanger et al., Arch. Biochem. Biophys. 95, pp 271-278 (1961)). First order inactivation rate constant (kobs) were obtained from plots of ln (vt /vo) vs time, and the correlation coefficients were greater than 0.98.
^a Inhibition rates were measured in 0.1M Hepes, 0.01M CaCl2, pH
7.5 buffer, 8% Me2 SO and at 25° C.

[3] = Table XVI, pH 7.5, 25° C, [I] 35-710 μM
[4] = Table XVI, pH 7.5, 25° C, [I] 0.04-2.0 mM
[5] = pH 7.5, Table XVI, biphasic plot, read-out: kobs/[I] (biphasic, first value)
[6] = pH 7.5, Table XVI, biphasic plot, read-out: kobs/[I] (biphasic, second value)
[7] = pH 7.5, Table XVI, second order, equimolar inhibitor and enzyme, read-out: kobs/[I]
[8] = Table XVI, pH 7.5, 25° C, [I] 1.7-58 μM, read-out: kobs/[I]
[9] = Table XVI, pH 7.5, 25° C, [I] 0.07-710 μM, read-out: kobs/[I]
[10] = pH 7.5, Table XII, 2.5% Me2SO, 25° C, [I] 8.7-87 μM
[11] = pH 7.5, Table XII, 2.5% Me2SO, 25° C, [I] 34-56 μM
[12] = pH 7.5, Table XII, 2.5% Me2SO, 25° C, [I] 3.4-70 μM, read-out: kobs/[I]
[13] = pH 7.5, Table XII, 2.5% Me2SO, 25° C, [I] 0.7-1.9 μM, read-out: kobs/[I]

| SMILES | kinact/KI (cathepsin G; [3]) | kinact/KI [1, 4] | kinact/KI [2, 7] | kinact/KI (chymotrypsin; [8]) | also measured |
| --- | --- | --- | --- | --- | --- |
| CCCOCCOc1oc(=O)c2cc(N)ccc2c1Cl | – | – | – | – | kobs/[I] (cathepsin G; [3]): 2.6 M⁻¹ s⁻¹; kobs/[I] [1, 4]: 0.5 M⁻¹ s⁻¹; kobs/[I] (chymotrypsin; Table XVI, pH 7.5, 25° C, [I] 1.7-58 μM): 140 M⁻¹ s⁻¹; kobs/[I] ([2]; Table XVI, pH 7.5, 25° C, [I] 0.07-710 μM): 33 M⁻¹ s⁻¹ |
| C[C@H](NC(=O)OC(C)(C)C)C(=O)N[C@@H](C)C(=O)Nc1ccc2c(Cl)c(OCCBr)oc(=O)c2c1 [7-(N-t-butyloxycarbonyl-L-alanylalanyl)amino-4-chloro-3-(2-bromoethoxy)isocoumarin] | 46 M⁻¹ s⁻¹ | 1670 M⁻¹ s⁻¹ | 230000 M⁻¹ s⁻¹ | – | kinact/KI (chymotrypsin; [5]): 2750 M⁻¹ s⁻¹; kinact/KI (chymotrypsin; [6]): 810 M⁻¹ s⁻¹ |
| CC(C)(C)OC(=O)N[C@@H](Cc1ccccc1)C(=O)Nc1ccc2c(Cl)c(OCCBr)oc(=O)c2c1 [7-(N-t-butyloxycarbonyl-L-phenylalanyl)amino-4-chloro-3-(2-bromoethoxy)isocoumarin] | – | 50 M⁻¹ s⁻¹ | – | 400 M⁻¹ s⁻¹ | percentage of inhibition (cathepsin G; Table XVI): 19% |
| C[C@@H](NC(=O)Nc1ccc2c(Cl)c(OCCBr)oc(=O)c2c1)c1ccccc1 [7-(R-α-methylbenzyl)carbamoylamino-4-chloro-3-(2-bromoethoxy)isocoumarin] | 77 M⁻¹ s⁻¹ | 9900 M⁻¹ s⁻¹ | > 440000 M⁻¹ s⁻¹ | – | kinact/KI (chymotrypsin; [5]): 180 M⁻¹ s⁻¹; kinact/KI (chymotrypsin; [6]): 90 M⁻¹ s⁻¹ |
| C[C@H](NC(=O)Nc1ccc2c(Cl)c(OCCBr)oc(=O)c2c1)c1ccccc1 [7-(S-α-methylbenzyl)carbamoylamino-4-chloro-3-(2-bromoethoxy)isocoumarin] | – | 2660 M⁻¹ s⁻¹ | > 570000 M⁻¹ s⁻¹ | 440 M⁻¹ s⁻¹ | percentage of inhibition (cathepsin G; Table XVI): 21% |
| CC(=O)Nc1ccc2c(Cl)c(OCCCBr)oc(=O)c2c1 [7-acetylamino-4-chloro-3-(3-bromopropoxy)isocoumarin] | 170 M⁻¹ s⁻¹ | 24 M⁻¹ s⁻¹ | – | 3980 M⁻¹ s⁻¹ | kinact/KI [2, 9]: 24400 M⁻¹ s⁻¹ |
| Nc1ccc2c(Cl)c(OCCBr)oc(=O)c2c1 [7-amino-4-chloro-3-(2-bromoethoxy)isocoumarin] | 410 M⁻¹ s⁻¹ | 1000 M⁻¹ s⁻¹ | – | 1160 M⁻¹ s⁻¹ | kinact/KI ([2]; pH 7.5, Table XVI, progress curve method, read-out: kobs/[I]): 200000 M⁻¹ s⁻¹ |
| CC(CBr)Oc1oc(=O)c2cc(N)ccc2c1Cl (centres unmarked) [7-amino-4-chloro-3-(2-bromoisopropoxy)isocoumarin] | 150 M⁻¹ s⁻¹ | 62 M⁻¹ s⁻¹ | – | 320 M⁻¹ s⁻¹ | kinact/KI [2, 9]: 24000 M⁻¹ s⁻¹ |
| Nc1ccc2c(Cl)c(OCCCBr)oc(=O)c2c1 [7-amino-4-chloro-3-(3-bromopropoxy)isocoumarin] | 210 M⁻¹ s⁻¹ | 10 M⁻¹ s⁻¹ | – | 790 M⁻¹ s⁻¹ | kinact/KI [2, 9]: 4000 M⁻¹ s⁻¹ |
| CCCOc1oc(=O)c2cc(N)ccc2c1Cl [7-amino-4-chloro-3-propoxyisocoumarin] | 61 M⁻¹ s⁻¹ | 4.3 M⁻¹ s⁻¹ | – | 375 M⁻¹ s⁻¹ | kinact/KI [2, 9]: 390 M⁻¹ s⁻¹ |
| O=C(NCc1ccccc1)Nc1ccc2c(Cl)c(OCCBr)oc(=O)c2c1 [7-benzylcarbamoylamino-4-chloro-3-(2-bromoethoxy)isocoumarin] | – | 3010 M⁻¹ s⁻¹ | 480000 M⁻¹ s⁻¹ | 890 M⁻¹ s⁻¹ | percentage of inhibition (cathepsin G; Table XVI): 23% |
| O=C(NCc1ccccc1)Nc1ccc2c(Cl)c(OCCCBr)oc(=O)c2c1 [7-benzylcarbamoylamino-4-chloro-3-(3-bromopropoxy)isocoumarin] | – | 13 M⁻¹ s⁻¹ | – | 440 M⁻¹ s⁻¹ | percentage of inhibition (cathepsin G; Table XVI): 21%; kinact/KI [2, 9]: 15600 M⁻¹ s⁻¹ |
| CCCOc1oc(=O)c2cc(NC(=O)CCc3ccccc3)ccc2c1Cl [7-dihydrocinnamoylamino-4-chloro-3-propyloxyisocoumarin] | – | – | – | – | kinact/KI (cathepsin G; [10]): 20 M⁻¹ s⁻¹; kinact/KI [1, 11]: 220 M⁻¹ s⁻¹; kinact/KI (chymotrypsin; [12]): 12000 M⁻¹ s⁻¹; kinact/KI [2, 13]: > 250000 M⁻¹ s⁻¹ |
| CCCOc1oc(=O)c2cc(NC(=O)OCC)ccc2c1Cl [7-ethoxycarbonylamino-4-chloro-3-propyloxyisocoumarin] | – | – | – | – | kinact/KI (cathepsin G; [10]): 138 M⁻¹ s⁻¹; kinact/KI [1, 11]: 1600 M⁻¹ s⁻¹; kinact/KI (chymotrypsin; [12]): 5200 M⁻¹ s⁻¹; kinact/KI [2, 13]: > 181000 M⁻¹ s⁻¹ |
| CCCOc1oc(=O)c2cc(NC(=O)NCC)ccc2c1Cl [7-ethylcarbamoylamino-4-chloro-3-propyloxyisocoumarin] | – | – | – | – | kinact/KI (cathepsin G; [10]): 166 M⁻¹ s⁻¹; kinact/KI [1, 11]: 80 M⁻¹ s⁻¹; kinact/KI (chymotrypsin; [12]): 120 M⁻¹ s⁻¹; kinact/KI [2, 13]: > 276000 M⁻¹ s⁻¹ |
| N=C(N)SCCOc1oc(=O)c2cc(NC(=S)Nc3ccccc3)ccc2c1Cl [PhNHCSNH-CiTEtOIC, 7-phenylthiocarbamoylamino-4-chloro-3-(2-isothiureidoethoxy)isocoumarin] | – | – | – | – | kinact/KI (human thrombin): 21400 M⁻¹ s⁻¹ |

More lines, main results first:

| kinact/KI (cathepsin G; [3]) | kinact/KI [1, 4] | kinact/KI [2, 7] | kinact/KI (chymotrypsin; [8]) | SMILES | also measured |
| --- | --- | --- | --- | --- | --- |
| 77 M⁻¹ s⁻¹ | 4470 M⁻¹ s⁻¹ | 646000 M⁻¹ s⁻¹ | – | CC(C)NC(=O)Nc1ccc2c(Cl)c(OCCBr)oc(=O)c2c1 [7-isopropylcarbamoylamino-4-chloro-3-(2-bromoethoxy)isocoumarin] | kinact/KI (chymotrypsin; [5]): 1340 M⁻¹ s⁻¹; kinact/KI (chymotrypsin; [6]): 380 M⁻¹ s⁻¹ |
| – | 76 M⁻¹ s⁻¹ | 390000 M⁻¹ s⁻¹ | 80 M⁻¹ s⁻¹ | O=C(Nc1ccc2c(Cl)c(OCCBr)oc(=O)c2c1)Nc1cccc2ccccc12 [7-naphthylcarbamoylamino-4-chloro-3-(2-bromoethoxy)isocoumarin] | percentage of inhibition (cathepsin G; Table XVI): 22% |
| 710 M⁻¹ s⁻¹ | 6330 M⁻¹ s⁻¹ | – | – | O=c1oc(OCCBr)c(Cl)c2ccc([N+](=O)[O-])cc12 [7-nitro-4-chloro-3-(2-bromoethoxy)isocoumarin] | kinact/KI (chymotrypsin; [7]): 98000 M⁻¹ s⁻¹; kinact/KI [2, 9]: 65600 M⁻¹ s⁻¹ |
| 1660 M⁻¹ s⁻¹ | 1060 M⁻¹ s⁻¹ | – | – | CC(CBr)Oc1oc(=O)c2cc([N+](=O)[O-])ccc2c1Cl (centres unmarked) [7-nitro-4-chloro-3-(2-bromoisopropoxy)isocoumarin] | kinact/KI (chymotrypsin; [7]): 200000 M⁻¹ s⁻¹ |
| 70 M⁻¹ s⁻¹ | 4950 M⁻¹ s⁻¹ | 480000 M⁻¹ s⁻¹ | – | O=C(Cc1ccccc1)Nc1ccc2c(Cl)c(OCCBr)oc(=O)c2c1 [7-phenylacetylamino-4-chloro-3-(2-bromoethoxy)isocoumarin] | kinact/KI (chymotrypsin; [7]): 82000 M⁻¹ s⁻¹ |
| – | 28 M⁻¹ s⁻¹ | – | – | O=C(Cc1ccccc1)Nc1ccc2c(Cl)c(OCCCBr)oc(=O)c2c1 [7-phenylacetylamino-4-chloro-3-(3-bromopropoxy)isocoumarin] | percentage of inhibition (cathepsin G; Table XVI): 28%; kinact/KI (chymotrypsin; [7]): 140000 M⁻¹ s⁻¹; kinact/KI [2, 9]: 32400 M⁻¹ s⁻¹ |
| – | 4 M⁻¹ s⁻¹ | – | 180 M⁻¹ s⁻¹ | O=C(Nc1ccccc1)Nc1ccc2c(Cl)c(OCCCBr)oc(=O)c2c1 [7-phenylcarbamoylamino-4-chloro-3-(3-bromopropoxy)isocoumarin] | percentage of inhibition (cathepsin G; Table XVI): 17%; kinact/KI [2, 5]: 13800 M⁻¹ s⁻¹; kinact/KI [2, 6]: 2890 M⁻¹ s⁻¹ |
| 200 M⁻¹ s⁻¹ | 1250 M⁻¹ s⁻¹ | > 480000 M⁻¹ s⁻¹ | – | O=c1oc(OCCBr)c(Cl)c2ccc(NC(=S)Nc3ccccc3)cc12 [7-phenylthiocarbamoylamino-4-chloro-3-(2-bromoethoxy)isocoumarin] | kinact/KI (chymotrypsin; [7]): 39000 M⁻¹ s⁻¹ |
| 240 M⁻¹ s⁻¹ | 3650 M⁻¹ s⁻¹ | – | 1070 M⁻¹ s⁻¹ | CC(C)(C)CC(=O)Nc1ccc2c(Cl)c(OCCBr)oc(=O)c2c1 [7-t-butylacetylamino-4-chloro-3-(2-bromoethoxy)isocoumarin] | – |
| 56 M⁻¹ s⁻¹ | 6600 M⁻¹ s⁻¹ | – | 320 M⁻¹ s⁻¹ | CC(C)(C)NC(=O)Nc1ccc2c(Cl)c(OCCBr)oc(=O)c2c1 [7-t-butylcarbamoylamino-4-chloro-3-(2-bromoethoxy)isocoumarin] | – |

From US5324648A, “Substituted isocoumarins as serine protease inhibitors and anti-inflammatory agents” (Georgia Tech Research Corporation, priority 1992, dated 1994)
